In brackets after ≈: the same amount, converted by molar mass. Read-outs that look alike come from different tables or passages of the source. Marks after values point to notes of the source that are not given here.
What was measured:
[1] = cited from earlier work
[2] = system: Burkholderia cepacia (ATCC 25416); assay: MIC, spectrum of activity: B.c.; assay type: cell-based; details: ATCC25416, read-out: Minimum Inhibitory Concentration, B.c.
[3] = rat, in vivo, cited from earlier work

O=[N+]([O-])c1ccc(C2=NOC(c3ccc(N4CCC(Oc5ccc(OC(F)(F)F)cc5)CC4)cc3)C2)o1 (centres unmarked) [Compound 9a, 3-(5-Nitrofuran-2-yl)-5-(4-(4-(4-(trifluoromethoxy)phenoxy)piperidin-1-yl)phenyl)-4,5-dihydroisoxazole]
Solubility (pH 7.4) [1]: 2.7 ^h µg/mL
MIC [2]: 50 µg/mL (≈ 96.6 µM)
Vd ([3]; iv, 10 mg/kg): 6.72 (1.10) L/kg
fe (fraction excreted unchanged in urine) ([3]; iv, 10 mg/kg): 0.04 (0.01) %
AUC0-∞ ([3]; po, 100 mg/kg): 10.2 (9.1) mg h/L
Cmin,24 h ([3]; po, 100 mg/kg): 0.17 (0.16) mg/L
Cmax [3]: 0.85 µg/mL
Cmin,24 h [3]: 0.17 µg/mL
